Results published in patent publication US10828301B2, “2,4-pyrimidinediamine compounds and their uses” (Rigel Pharmaceuticals, Inc, priority 2002, dated 2020).

Tests used:
[1] = system: cultured human mast cells (CHMC); test: CHMC low cell density IgE activation: tryptase and LTC4 assays; format: cell-based; conditions: Low Density CHMC, anti-IgE activation, tryptase readout, read-out: CHMC anti-IgE Tryptase
Summary of the method: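 Degranulation measured after 30 min anti-IgE challenge at 37° C of CHMC plated at 1000-1500 cells/well following 1 h preincubation. Readouts: LTC4 by ELISA on donor-specific diluted supernatants, and tryptase activity from a 30 min room-temperature substrate reaction.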

[2] = system: cultured human mast cells (CHMC); test: CHMC low cell density ionomycin activation: tryptase assay; format: cell-based; conditions: Low Density CHMC, ionomycin activation, tryptase readout, read-out: CHMC Ionomycin Tryptase

IC50 ([1]; Homo sapiens, Mast cell) | IC50 ([2]; Homo sapiens, Mast cell) | IC50 [1] | IC50 [2] | Compound
> 10 µM | > 10 µM | – | – | Oc1ccc(CCNc2ccnc(NCCc3ccc(O)cc3)n2)cc1 [Compound R925790, N2,N4-Bis[2-(4-hydroxyphenyl)ethyl]-2,4-pyrimidinediamine]
> 10 µM | > 10 µM | – | – | Oc1ccc(CCNc2ncc(F)c(NCCc3ccc(O)cc3)n2)cc1 [Compound R925791, N2,N4-Bis[2-(4-hydroxyphenyl)ethyl]-5-fluoro-2,4-pyrimidinediamine]
6.25 µM | > 10 µM | – | – | Oc1ccc(CCNc2ncc(Br)c(NCCc3ccc(O)cc3)n2)cc1 [Compound R925792, N2,N4-Bis[2-(4-hydroxyphenyl)ethyl]-5-bromo-2,4-pyrimidinediamine]
> 10 µM | > 10 µM | – | – | Fc1cnc(Nc2ccc3c(c2)OCCO3)nc1NC1CCCCC1 [Compound R925794, N4-Cyclohexyl-N2-(3,4-ethylenedioxyphenyl)-5-fluoro-2,4-pyrimidinediamine]
> 10 µM | > 10 µM | – | – | O=C(O)C1CCC(Nc2nc(Nc3ccc4c(c3)OCCO4)ncc2F)CC1 (centres unmarked) [Compound R925795, N4-(4-Carboxycyclohexyl)-N2-(3,4-ethylenedioxyphenyl)-5-fluoro-2,4-pyrimidinediamine]
> 10 µM | > 10 µM | – | – | Brc1cnc(Nc2ccccc2-c2ccccc2)nc1Nc1ccccc1-c1ccccc1 [Compound R925798, N2,N4-Bis(2-phenylphenyl)-5-bromo-2,4-pyrimidinediamine]
> 10 µM | > 10 µM | – | – | COc1ccc(-c2ccccc2)cc1Nc1ncc(Br)c(Nc2cc(-c3ccccc3)ccc2OC)n1 [Compound R925799, N2,N4-Bis(2-methoxy-5-phenylphenyl)-5-bromo-2,4-pyrimidinediamine]
> 10 µM | > 10 µM | – | – | Cc1ccc(-c2ccccc2)cc1Nc1ncc(Br)c(Nc2cc(-c3ccccc3)ccc2C)n1 [Compound R925800, N2,N4-Bis(2-methyl-5-phenylphenyl)-5-bromo-2,4-pyrimidinediamine]
> 10 µM | > 10 µM | – | – | COc1cc(-c2ccccc2)c(C)cc1Nc1ncc(Br)c(Nc2cc(C)c(-c3ccccc3)cc2OC)n1 [Compound R925801, N2,N4-Bis(2-methoxy-5-methyl-4-phenylphenyl)-5-bromo-2,4-pyrimidinediamine]
> 10 µM | > 10 µM | – | – | COc1ccc(Nc2ncc(Br)c(Nc3ccc(OC)c(-c4ccccc4)c3)n2)cc1-c1ccccc1 [Compound R925802, N2,N4-Bis(4-methoxy-3-phenylphenyl)-5-bromo-2,4-pyrimidinediamine]
> 10 µM | > 10 µM | – | – | Brc1cnc(Nc2cccc(-c3ccccc3)c2)nc1Nc1cccc(-c2ccccc2)c1 [Compound R925803, N2,N4-Bis(3-phenylphenyl)-5-bromo-2,4-pyrimidinediamine]
> 10 µM | > 10 µM | – | – | c1ccc(-c2ccccc2Nc2ccnc(Nc3ccccc3-c3ccccc3)n2)cc1 [Compound R925804, N2,N4-Bis(2-phenylphenyl)-2,4-pyrimidinediamine]
> 10 µM | > 10 µM | – | – | COc1ccc(-c2ccccc2)cc1Nc1ccnc(Nc2cc(-c3ccccc3)ccc2OC)n1 [Compound R925805, N2,N4-Bis(2-methoxy-5-phenylphenyl)-2,4-pyrimidinediamine]
> 10 µM | > 10 µM | – | – | COc1ccc(Nc2ccnc(Nc3ccc(OC)c(-c4ccccc4)c3)n2)cc1-c1ccccc1 [Compound R925806, N2,N4-Bis(4-methoxy-3-phenylphenyl)-2,4-pyrimidinediamine]
> 10 µM | > 10 µM | – | – | Cc1ccc(-c2ccccc2)cc1Nc1ccnc(Nc2cc(-c3ccccc3)ccc2C)n1 [Compound R925807, N2,N4-Bis(2-methyl-5-phenylphenyl)-2,4-pyrimidinediamine]
> 10 µM | > 10 µM | – | – | COc1cc(-c2ccccc2)c(C)cc1Nc1ccnc(Nc2cc(C)c(-c3ccccc3)cc2OC)n1 [Compound R925808, N2,N4-Bis(2-methoxy-5-methyl-4-phenylphenyl)-2,4-pyrimidinediamine]
3.3 µM | > 10 µM | – | – | c1ccc(-c2cc(Nc3ccc4c(c3)OCCO4)nc(Nc3ccc4c(c3)OCCO4)n2)cc1 [Compound R925811, N2,N4-Bis(3,4-ethylenedioxyphenyl)-6-phenyl-2,4-pyrimidinediamine]
5.8 µM | > 10 µM | – | – | Oc1cccc(Nc2cc(-c3ccccc3)nc(Nc3cccc(O)c3)n2)c1 [Compound R925812, N2,N4-Bis(3-hydroxyphenyl)-6-phenyl-2,4-pyrimidinediamine]
> 10 µM | > 10 µM | – | – | COC(=O)c1ccc(-c2cnc(Nc3ccc4c(c3)OCCO4)nc2Nc2ccc3c(c2)OCCO3)cc1 [Compound R925813, N2,N4-Bis(3,4-ethylenedioxyphenyl)-5-(4-methoxycarbonylphenyl)-2,4-pyrimidinediamine]

IC50 ([1]; Homo sapiens, Mast cell) | IC50 ([2]; Homo sapiens, Mast cell) | IC50 [1] | IC50 [2] | Compound
> 10 µM | > 10 µM | – | – | CCOC(=O)C(Nc1ncc(C#N)c(NC(C(=O)OCC)C(C)C)n1)C(C)C (centres unmarked) [Compound R925814, N2,N4-Bis(1-ethoxycarbonyl-2-methylpropyl)-5-cyano-2,4-pyrimidinediamine]
> 10 µM | > 10 µM | – | – | COC(=O)C(CC(C)C)Nc1ncc(C#N)c(NC(CC(C)C)C(=O)OC)n1 (centres unmarked) [Compound R925815, N2,N4-Bis(1-methoxycarbonyl-3-methylbutyl)-5-cyano-2,4-pyrimidinediamine]
6 µM | > 10 µM | – | – | Oc1ccc(-c2cnc(Nc3ccc4c(c3)OCCO4)nc2Nc2ccc3c(c2)OCCO3)cc1 [Compound R925816, N2,N4-Bis(3,4-ethylenedioxyphenyl)-5-(4-hydroxyphenyl)-2,4-pyrimidinediamine]
– | – | > 10 µM | > 10 µM | COC(=O)c1ccc(CNc2ncc(C#N)c(NCc3ccc(C(=O)OC)cc3)n2)cc1 [Compound R925819, N2,N4-Bis(methoxycarbonylbenzyl)-5-cyano-2,4-pyrimidinediamine]
– | – | > 10 µM | > 10 µM | COC(=O)c1ccc(CNc2nc(Nc3ccc4c(c3)OCCO4)ncc2C#N)cc1 [Compound R925820, 5-Cyano-N2-(3,4-ethylenedioxyphenyl)-N4-(methoxycarbonylbenzyl)-2,4-pyrimidinediamine]
– | – | > 10 µM | > 10 µM | COC(=O)c1ccc(CNc2nc(Nc3cccc(O)c3)ncc2C#N)cc1 [Compound R925821, 5-Cyano-N2-(3-hydroxyphenyl)-N4-(methoxycarbonylbenzyl)-2,4-pyrimidinediamine]
> 10 µM | > 10 µM | – | – | C=CCNc1ncc(Br)c(Nc2cccc(O)c2)n1 [Compound R925822, N2-Allyl-5-bromo-N4-(3-hydroxyphenyl)-2,4-pyrimidinediamine]
> 10 µM | > 10 µM | – | – | C=CCNc1ncc(F)c(Nc2ccc3c(c2)OCCO3)n1 [Compound R925823, N2-Allyl-N4-(3,4-ethylenedioxyphenyl)-5-fluoro-2,4-pyrimidinediamine]
> 10 µM | > 10 µM | – | – | CCOC(=O)c1cnc(Nc2cccc(O)c2)nc1NOCc1ccccc1 [Compound R925824, N4-Benzyloxy-5-ethoxycarbonyl-N2-(3-hydroxyphenyl)-2,4-pyrimidinediamine]
> 10 µM | > 10 µM | – | – | CCOC(=O)c1cnc(Nc2ccc3c(c2)OCCO3)nc1NOCc1ccccc1 [Compound R925837, N4-Benzyloxy-5-ethoxycarbonyl-N2-(3,4-ethylenedioxyphenyl)-2,4-pyrimidinediamine]
8.2 µM | > 10 µM | – | – | CCOC(=O)c1nc(Nc2cccc(O)c2)nc(Nc2cccc(O)c2)c1[N+](=O)[O-] [Compound R925849, N2,N4-Bis(3-hydroxyphenyl)-6-ethoxycarbonyl-5-nitro-2,4-pyrimidinediamine]
3 µM | > 10 µM | – | – | CCOC(=O)c1nc(Nc2ccc3c(c2)OCCO3)nc(Nc2ccc3c(c2)OCCO3)c1[N+](=O)[O-] [Compound R925852, N2,N4-Bis(3,4-ethylendioxyphenyl)-6-ethoxycarbonyl-5-nitro-2,4-pyrimidinediamine]
9.85 µM | > 10 µM | – | – | CCOC(=O)c1nc(Nc2cccc(O)c2)nc(Nc2cccc(O)c2)c1N [Compound R925856, 5-Amino-6-ethoxycarbonyl-N2,N4-bis(3-hydroxyphenyl)-2,4-pyrimidinediamine]
5.95 µM | > 10 µM | – | – | CCOC(=O)c1nc(Nc2ccc3c(c2)OCCO3)nc(Nc2ccc3c(c2)OCCO3)c1N [Compound R925857, 5-Amino-6-ethoxycarbonyl-N2,N4-bis(3,4-ethylenedioxyphenyl)-2,4-pyrimidinediamine]
0.274 µM | > 10 µM | – | – | Oc1cccc(Nc2ncc(C(F)(F)F)c(Nc3cccc(O)c3)n2)c1 [Compound R925863, N2,N4-Bis(3-hydroxyphenyl)-5-trifluoromethyl-2,4-pyrimidinediamine]
> 10 µM | > 10 µM | – | – | CCOC(=O)CNc1nc(NCC(=O)OCC)c([N+](=O)[O-])c(C(=O)OCC)n1 [Compound R925864, N2,N4-Bis(ethoxycarbonylmethyl)-6-ethoxycarbonyl-5-nitro-2,4-pyrimidinediamine]
> 10 µM | > 10 µM | – | – | CCOC(=O)CNc1nc(NCC(=O)OCC)c(N)c(C(=O)OCC)n1 [Compound R925865, 5-Amino-N2,N4-bis(ethoxycarbonylmethyl)-6-ethoxycarbonyl-2,4-pyrimidinediamine]
4.2 µM | > 10 µM | – | – | Cc1cnc(Nc2ccc3c(c2)OCCO3)nc1Nc1ccc2c(c1)OCCO2 [Compound R926242, N2,N4-Bis(3,4-ethylenedioxyphenyl)-5-methyl-2,4-pyrimidinediamine]
